The values that follow come from patent publication US4093717A, “Antimicrobial compositions” (University of Mississippi, priority 1975, dated 1978).

The test system of test [1] is C. albicans. Description: two-fold serial dilution assay (MIC), C. albicans. To be noted: for MIC: Candida albicans, read-out: Minimum Inhibitory Concentration, C. Albicans. Type of test: cell-based, Candida albicans. The text has this: (§1) Quantitive assay of antimicrobial activity of the inventive compositions against selected test organisms was made using a two-fold serial dilution in Eugonbroth or Mycophil broth. The concentration of pure alkaloids in the initial dilution tube was 50 mcg/ml. Streptomycin sulfate (Nutrional Biochemical) and amphotericin B (Calbiochem "A" grade) at the same concentrations as above were used as standard antibiotics for comparison with the activities of the alkaloids against bacteria and yeast species, respectively. Cultures used in the serial dilution assay included S. aureus, B. subtilis, M. smegmatis, C. albicans, and S. cerevisiae. Readings were taken after incubation times of 24 hours for all organisms except M. smegmatis, which was read at 72 hours. The concentration mcg/ml of the tube of highest dilution which was free from growth was recorded as the minimal inhibitory concentration in Table 3.

Test [2] concerns S. cerevisiae. Description: two-fold serial dilution assay (MIC), S. cerevisiae. Format: cell-based. To be noted: Saccharomyces cerevisiae, read-out: Minimum Inhibitory Concentration, S. cerevisiae.
Text: as §1

The test system of test [3] is Staphylococcus aureus ATCC 6538. The experiment in a line: agar well diffusion assay, S. aureus. Format: cell-based. The settings on record: read-out: width of the clear zone of inhibition, S. aureus. The protocol:
(§2) Bacterial test organisms were cultured in Eugonager and Eugonbroth (BBL), and fungi and yeasts were cultured in Mycophil (BBL) agar and broth. Antimicrobial activity was recorded as the width (in millimeters) of the clear zone of inhibition surrounding the agar well.
(§3) Qualitative evaluation of antimicrobial activity of the inventive extracts, fractions, and pure compounds was accomplished using an agar well diffusion assay. As set out hereinbefore, the inventive compositions were tested for activity against the following microorganisms: Staphylococcus aureus ATCC 6538; Escherichia coli ATCC 10536; Mycobacterium smegmatis ATCC 607; Pseudomonas aeruginosa ATCC 15442; Candida albicans ATCC 10321; Saccharomyces cerevisiae ATCC 9763; and Asperigillus niger ATCC 16888. In addition, the compounds of the preferred embodiments were also tested against Bacillus subtilis ATCC 6633. Bacterial test organisms were cultured in Eugonagar and Eugonbroth (BBL), and fungi and yeasts were cultured in Mycophil (BBL) agar and broth.
(§4) Plates for assay were prepared by uniformly seeding sterily, partially cooled, molten agar with dilutions of test organisms grown in broth or suspensions of conidia produced on agar slants (A. niger). The seeded agar medium was dispensed into 100 × 15 mm sterile petri dishes (15 ml per dish). Cylindrical plugs were removed from the solidified agar plates, using a sterile cork borer, to produce wells having a diameter of approximately 11 mm. One hundred microliters of a solution or suspension of an extract, fraction, or pure compound was added to each well. The extracts and fractions were tested as solutions or suspensions in a concentration of 20 mg/ml; pure compounds were tested at 1 mg/ml. When solvents other than water were required to dissolve extracts or compounds, solvent blanks were run against each test organism.
(§5) Plates prepared as described above were incubated as follows: Bacteria were grown at 37° C. for 24 hours, with the exception of M. smegmatis, which grows more slowly and requires incubation at 37° C. for 48 hours, before reading. Fungi or yeast were incubated at 25° C. for 24 hours, before growth was evident.
(§6) Antimicrobial activity was recorded as the width (in mm) of the clear zone of inhibition surrounding the agar well.

The subject of test [4] is Mycobacterium smegmatis ATCC 607. The experiment in a line: agar well diffusion assay, M. smegmatis. Type of test: cell-based. The settings on record: Mycolicibacterium smegmatis, read-out: width of the clear zone of inhibition, M. smegmatis. The protocol:
as §2, §3, §4, §5, §6

The test system of test [5] is B. subtilis. The experiment in a line: two-fold serial dilution assay (MIC), B. subtilis. Format: cell-based. The settings on record: Bacillus subtilis, read-out: Minimum Inhibitory Concentration, R. Subtilis.
Text: as §1

The subject of test [6] is Bacillus subtilis ATCC 6633. Description: agar well diffusion assay, B. subtilis. Format: cell-based. To be noted: read-out: width of the clear zone of inhibition, B. subtilis. The procedure:
as §2, §3, §4, §5, §6
For orientation: A growth-free zone around the sample is the usual read-out of agar diffusion tests.

Test [7] has as its system test organisms. Description: qualitative antimicrobial activity of extracts, fractions and compounds. Type of test: cell-based. The settings on record: text statement on extracts, fractions, compounds.
Experimental: Qualitative evaluation of antimicrobial activity of the inventive extracts, fractions, and pure compounds was accomplished using an agar well diffusion assay. As set out hereinbefore, the inventive compositions were tested for activity against the following microorganisms: Staphylococcus aureus ATCC 6538; Escherichia coli ATCC 10536; Mycobacterium smegmatis ATCC 607; Pseudomonas aeruginosa ATCC 15442; Candida albicans ATCC 10321; Saccharomyces cerevisiae ATCC 9763; and Asperigillus niger ATCC 16888. […] Bacterial test organisms were cultured in Eugonagar and Eugonbroth (BBL), and fungi and yeasts were cultured in Mycophil (BBL) agar and broth.
Test [8] deals with S. aureus. The experiment in a line: two-fold serial dilution assay (MIC), S. aureus. Type of test: cell-based. The settings on record: Staphylococcus aureus; 24 hours; read-out: Minimum Inhibitory Concentration, S. aureus.
Text: as §1

The subject of test [9] is Candida albicans. Description: agar well diffusion assay, C. albicans. Format: cell-based. The settings on record: read-out: width of the clear zone of inhibition, C. Albicans. The procedure: as §2, §3, §4, §5, §6
Test [10] relates to Saccharomyces cerevisiae ATCC 9763. The experiment in a line: agar well diffusion assay, S. cerevisiae. Format: cell-based. To be noted: read-out: width of the clear zone of inhibition, S. cerevisiae. The protocol: as §2, §3, §4, §5, §6
Test [11] deals with M. smegmatis. The experiment in a line: two-fold serial dilution assay (MIC), M. smegmatis. Format: cell-based, Mycobacterium smegmatis. To be noted: Mycolicibacterium smegmatis, read-out: Minimum Inhibitory Concentration, M. Smegmatis.
Text: as §1

Test [12] relates to Asperigillus niger ATCC 16888. The experiment in a line: agar well diffusion assay, A. niger. Type of test: cell-based. The settings on record: Aspergillus niger, read-out: width of the clear zone of inhibition, A. niger. The protocol: as §2
as §3, with “broth. […]” for “broth.”
Plates prepared as described above were incubated as follows: Bacteria were grown at 37° C. for 24 hours, with the exception of M. smegmatis, which grows more slowly and requires incubation at 37° C. for 48 hours, before reading. […]
as §6

For test [13], the system named is S. aureus, B. subtilis, M. smegmatis, C. albicans, and S. cerevisiae. The experiment in a line: two-fold serial dilution assay, activity overall against bacteria and yeasts. Format: cell-based. To be noted: from the data in Table 3.
Text: as §1

Setting [14] is: ATCC6538, 37° C., 24 hours, extracts and fractions 20 mg/ml, pure compounds 1 mg/ml, 100 microliters per well.
[15] abbreviates: ATCC607, 37° C., 48 hours, extracts and fractions 20 mg/ml, pure compounds 1 mg/ml, 100 microliters per well.
Setting [16] is: ATCC6633, 37° C., 24 hours, pure compounds 1 mg/ml, 100 microliters per well.
[17] abbreviates: 25° C., 24 hours, extracts and fractions 20 mg/ml, pure compounds 1 mg/ml, 100 microliters per well.
[18] abbreviates: ATCC9763, 25° C., 24 hours, pure compounds 1 mg/ml, 100 microliters per well.

For orientation: zone of inhibition means the size of the clear area around the sample on an inoculated plate.

SMILES strings stand for the structures. Converted amounts (≈) assume the structure as drawn. Structures can show the parent of a compound that is named as a salt. Where two headings read alike, the source gives them in different places.

Turning to `C[C@@H]1[C@H](O)[C@@H](C)/C=C/C=C/C=C/C=C/C=C/C=C/C=C/[C@H](O[C@@H]2O[C@H](C)[C@@H](O)[C@H](N)[C@@H]2O)C[C@@H]2O[C@](O)(C[C@@H](O)C[C@@H](O)[C@H](O)CC[C@@H](O)C[C@@H](O)CC(=O)O[C@H]1C)C[C@H](O)[C@H]2C(=O)O` [amphotocericin B, amphotericin B, reference compound], the MIC in test [1] (24 h) and in test [2] (24 h) was 0.78 µg/mL (≈ 0.844 µM) in each case.
Take `COc1cc2cc3c4c(cc(OC)c(OC)c4c2cc1OC)CCN3C` [dehydroglaucine]: the MIC in [1] (24 h) worked out at 25 µg/mL (≈ 70.7 µM); in test [5] (24 h), 25 µg/mL (≈ 70.7 µM); in test [2] (24 h) it was 50 µg/mL (≈ 141 µM); in [8] it was 25 µg/mL (≈ 70.7 µM); in test [11] (72 h), 25 µg/mL (≈ 70.7 µM). Also, the zone of inhibition at 1000 µg/mL in [3] (ATCC6538, 24 h) came to 4 mm; in test [4] (ATCC607, 48 h) it was 8 mm; in [6] (ATCC6633, 24 h), 7 mm; in test [9] (24 h) it was 6 mm; in test [10] (ATCC9763, 24 h), 6 mm. Besides, the “antimicrobial activity (in words)” value in test [7] is given as “exhibited antimicrobial activity”; in [7] (listed as Dehydroglaucine), “exhibit all of the antimicrobial activity in that Fraction”.
Regarding `C[n+]1ccc2cc3c(c4c2c1C(=O)c1ccccc1-4)OCO3` [liriodenine methiodide], the zone of inhibition at 1000 µg/mL in [12] (ATCC16888, 25° C., 24 hours, extracts and fractions 20 mg/ml, pure compounds 1 mg/ml, 100 microliters per well) was found to be 4 mm; in test [3] (setting [14]) it was 6 mm; in [4] (setting [15]), 14 mm; in test [6] (setting [16]), 6 mm; in [9] (setting [17]), 17 mm; in [10] (setting [18]), 15 mm. Also, the MIC in [1] (24 hours) was 0.78 µg/mL; in [5] (24 hours) it was 3.1 µg/mL; in test [2] (24 hours) it was 3.1 µg/mL; in [8] it was 6.2 µg/mL; in test [11] (72 hours), 3.1 µg/mL. Moreover, in test [13], the “in vitro activity compared with standard antibiotics or other alkaloids” value is “in vitro activity comparable to that of streptomycin sulfate and amphotericin B”.
Turning to `O=C1c2ccccc2-c2c3c(cc4ccnc1c24)OCO3` [liriodenine], the zone of inhibition at 1000 µg/mL in [12] (ATCC16888, 24 h) came to 11 mm; in test [3] (ATCC6538, 24 h), 5 mm; in [4] (ATCC607, 48 h), 11 mm; in test [6] (ATCC6633, 24 h) it was 8 mm; in test [9] (24 h) it was 3 mm; in test [10] (ATCC9763, 24 h), 5 mm. Further, the MIC in [1] (24 h) was 6.2 µg/mL (≈ 22.5 µM); in test [5] (24 h), 0.39 µg/mL (≈ 1.42 µM); in test [2] (24 h) it was 6.2 µg/mL (≈ 22.5 µM); in test [8], 3.1 µg/mL (≈ 11.3 µM); in [11] (72 h), 1.56 µg/mL (≈ 5.67 µM). Besides, the “antimicrobial activity (in words)” value in test [7] is listed as “exhibited antimicrobial activity”; in test [7] (listed as Liriodenine), “contained all of the antimicrobial activity in this fraction”. The “in vitro activity compared with standard antibiotics or other alkaloids” value in test [13] is “in vitro activity comparable to that of streptomycin sulfate and amphotericin B”.
Turning to `COc1cc2c(cc1OC)-c1c(OC)c(OC)cc3cc[n+](C)c(c13)C2=O` [oxoglaucine methiodide], the MIC in test [1] (24 hours) came to 1.56 µg/mL; in test [5] (24 hours), 25 µg/mL; in test [2] (24 hours), 25 µg/mL; in test [8], 25 µg/mL; in test [11] (72 hours) it was 25 µg/mL. For the same compound, the “activity against C. albicans (in words)” value in [1] (from the data in Table 3) was “particularly active against C. albicans”. In addition, the zone of inhibition at 1000 µg/mL in test [3] (setting [14]) was found to be 9 mm; in test [4] (setting [15]), 10 mm; in test [6] (setting [16]), 9 mm; in test [9] (setting [17]), 10 mm; in [10] (setting [18]), 11 mm.
As to `[H]/N=C(/N)N[C@H]1[C@H](O)[C@@H](O)[C@H](O[C@@H]2O[C@@H](C)[C@](O)(C=O)[C@H]2O[C@@H]2O[C@@H](CO)[C@H](O)[C@@H](O)[C@@H]2NC)[C@@H](N/C(N)=N\[H])[C@@H]1O` [streptomycin sulfate, reference compound], the figures for the MIC in [5] (24 h), in test [8] and in [11] (72 h) were 1.56 µg/mL, 3.1 µg/mL and 0.78 µg/mL, respectively.
